Patent publication US20040229772A1, “Peptides responsive to antibodies against consensus peptide of the CS4-CFA/I family proteins” (priority 1996, published 2004)
No end group written: not given here.

Legend:
whole bacteria, CF CFA/1 = assay: Agglutination of whole bacteria by serum of immunized rabbits; format: cell-based, E. coli; details: two rabbits immunized per preparation
0166 = assay: Western blot of immune serum with denatured protein; format: binding, E. coli; details: 4 strong reaction, rabbit serum
Protocol: (§1) Rabbits were bled, then immunized on day 0 with a composition containing 280 μg peptide/BSA conjugate in Freund's complete adjuvant. On day 21, the animals were boosted with 140 μg peptide/BSA conjugate in Freund's incomplete adjuvant. Blood was drawn on day 32. The interaction of antibodies raised against the specific antigens of the denatured proteins of the various strains was studied by comparing interaction of serum from the animals obtained on day 0 with response on to serum from the animals obtained on day 32 by Western blot. In all instances, the Western blot was negative for reaction with serum obtained on day 0. The Western blot data on interaction of immune serum collected on day 32 with the denatured proteins is given below with 0 being no reaction and 4 being a strong reaction:
(§2) Rabbits were given a composition containing 400 μg peptide of the formula: […] (SEQ ID NO:1) in complete Freund's adjuvant. The response was evaluated as in Example 2:
(§3) The same study was done comparing antibodies raised to denatured proteins of PCF 0166.
(§4) Effect of antibody raised to whole CS2 protein was studied in the manner of example 5.

CS1 = assay: as above; format: binding, E. coli; details: 4 strong reaction, rabbit serum
Protocol: as §1, §2, §3, §4

CS17 = assay: as above; format: binding, E. coli; details: 4 strong reaction, rabbit serum
Protocol: as §1, §2, §3, §4

CS4 = assay: as above; format: binding, E. coli; details: 4 strong reaction, rabbit serum
Protocol: as §1, §2, §3, §4

whole bacteria, CF CS2 = assay: Agglutination of whole bacteria by serum of immunized rabbits; format: cell-based, E. coli; details: two rabbits immunized per preparation
whole bacteria, CF CS17 = assay: as above; format: cell-based, E. coli; details: two rabbits immunized per preparation
whole bacteria, CF CS4 = assay: as above; format: cell-based, E. coli; details: two rabbits immunized per preparation
whole bacteria, CF CS1 = assay: as above; format: cell-based, E. coli; details: two rabbits immunized per preparation
whole bacteria, CF 0166 = assay: as above; format: cell-based, E. coli; details: two rabbits immunized per preparation
CS2 = assay: Western blot of immune serum with denatured protein; format: binding, E. coli; details: 4 strong reaction, rabbit serum
Protocol: as §1, §2, §3, §4

CFA/I = assay: as above; format: binding, E. coli; details: 4 strong reaction, rabbit serum
Protocol: as §1, §2, §3, §4

VEKNITVTASVDPTIDLLQADGSALPSAVALTYSPA (listed as Escherichia coli) [SEQ ID NO:1, 36 amino acid consensus peptide of the CS4-CFA/I family]
agglutination of whole bacteria by serum (whole bacteria, CF CFA/1): 0/2 | Western blot reaction of immune serum with denatured protein (0166; titer 1:50, 0 no reaction): 4 | Western blot reaction of immune serum with denatured protein (0166; titer 1:500, 0 no reaction): 2 | Western blot reaction of immune serum with denatured protein (CS1; titer 1:50, 0 no reaction): 4 | Western blot reaction of immune serum with denatured protein (CS1; titer 1:500, 0 no reaction): 4 | Western blot reaction of immune serum with denatured protein (CS1; titer 1:5000, 0 no reaction): 2 | Western blot reaction of immune serum with denatured protein (CS1; titer 1:50000, 0 no reaction): 1 | Western blot reaction of immune serum with denatured protein (CS17; titer 1:50, 0 no reaction): 2 | Western blot reaction of immune serum with denatured protein (CS17; titer 1:500, 0 no reaction): 0 | Western blot reaction of immune serum with denatured protein (CS17; titer 1:5000, 0 no reaction): 0 | Western blot reaction of immune serum with denatured protein (CS17; titer 1:50000, 0 no reaction): 0 | Western blot reaction of immune serum with denatured protein (CS4; titer 1:50, 0 no reaction): 2 | Western blot reaction of immune serum with denatured protein (CS4; titer 1:500, 0 no reaction): 0 | Western blot reaction of immune serum with denatured protein (CS4; titer 1:5000, 0 no reaction): 0 | Western blot reaction of immune serum with denatured protein (CS4; titer 1:50000, 0 no reaction): 0 | agglutination of whole bacteria by serum (whole bacteria, CF CS2): 0/2 | agglutination of whole bacteria by serum (whole bacteria, CF CS17): 0/2 | agglutination of whole bacteria by serum (whole bacteria, CF CS4): 0/2 | agglutination of whole bacteria by serum (whole bacteria, CF CS1): 0/2 | agglutination of whole bacteria by serum (whole bacteria, CF 0166): 0/2

peptide/BSA conjugate: consensus peptide with added terminal cysteine (SEQ ID NO:37) conjugated to iodoacetylated bovine serum albumin (CVEKNITVTASVDPTIDLLQADGSALPSAVALTYSPA; also: conjugated via added terminal Cys to iodoacetylated BSA; listed as Escherichia coli)
agglutination of whole bacteria by serum (whole bacteria, CF CFA/1): 1/2 | Western blot reaction of immune serum with denatured protein (CS2; titer 1:50, 0 no reaction): 4 | Western blot reaction of immune serum with denatured protein (CS2; titer 1:500, 0 no reaction): 4 | Western blot reaction of immune serum with denatured protein (CS2; titer 1:5000, 0 no reaction): 4 | Western blot reaction of immune serum with denatured protein (0166; titer 1:50, 0 no reaction): 4 | Western blot reaction of immune serum with denatured protein (0166; titer 1:500, 0 no reaction): 1 | Western blot reaction of immune serum with denatured protein (0166; titer 1:5000, 0 no reaction): 3 | Western blot reaction of immune serum with denatured protein (CS1; titer 1:50, 0 no reaction): 4 | Western blot reaction of immune serum with denatured protein (CS1; titer 1:500, 0 no reaction): 4 | Western blot reaction of immune serum with denatured protein (CS1; titer 1:5000, 0 no reaction): 4 | Western blot reaction of immune serum with denatured protein (CS1; titer 1:50000, 0 no reaction): 4 | Western blot reaction of immune serum with denatured protein (CFA/I; titer 1:50, 0 no reaction): 4 | Western blot reaction of immune serum with denatured protein (CFA/I; titer 1:500, 0 no reaction): 3 | Western blot reaction of immune serum with denatured protein (CFA/I; titer 1:5000, 0 no reaction): 2 | Western blot reaction of immune serum with denatured protein (CS17; titer 1:50, 0 no reaction): 4 | Western blot reaction of immune serum with denatured protein (CS17; titer 1:500, 0 no reaction): 3 | Western blot reaction of immune serum with denatured protein (CS17; titer 1:5000, 0 no reaction): 2 | Western blot reaction of immune serum with denatured protein (CS17; titer 1:50000, 0 no reaction): 0.5 | Western blot reaction of immune serum with denatured protein (CS4; titer 1:50, 0 no reaction): 4 | Western blot reaction of immune serum with denatured protein (CS4; titer 1:500, 0 no reaction): 4 | Western blot reaction of immune serum with denatured protein (CS4; titer 1:5000, 0 no reaction): 3 | Western blot reaction of immune serum with denatured protein (CS4; titer 1:50000, 0 no reaction): 2 | agglutination of whole bacteria by serum (whole bacteria, CF CS2): 2/2 | agglutination of whole bacteria by serum (whole bacteria, CF CS17): 0/2 | agglutination of whole bacteria by serum (whole bacteria, CF CS4): 0/2 | agglutination of whole bacteria by serum (whole bacteria, CF CS1): 1/2 | agglutination of whole bacteria by serum (whole bacteria, CF 0166): 1/2
